These results are taken from paper PMC6864647, “Synthesis and Antiviral Activity of Novel 1,3,4-Thiadiazole Inhibitors of DDX3X” (Molecules, 2019).

As a reminder, the IC50 is the concentration that gives 50% inhibition. One may read the CC50 as the concentration giving 50% cytotoxicity. A higher CC50 goes with better tolerance by the cells. One may read the EC50 as the concentration that produces a half-maximal response.

The test system of data set [1] is HIV-1 (NL4-3). Description: Antiviral BiCycle assay, HIV-1 NL4-3 in H9 cells with TZM-bl readout. Particulars: 72 h, then TZM-bl reporter cells 48 h. In kind it is cell-based. The procedure: The antiviral activity was evaluated by measuring the half maximal inhibitory concentration (IC50) values against the HIV-1 wild-type reference strain NL4-3 in a TZM-bl cell line based phenotypic assay, named BiCycle Assay. The method includes a first round of infection of human T cell lymphoma derived clone H9 at multiplicity of infection of 0.03 in the presence of serial dilution of compounds in a 96-well plate. After 72 h, 50 microliters of supernatants from each well were used to infect the TZM-bl cell line, which allow the quantitative analysis of HIV infection by measuring the expression of the luciferase gene integrated in the genome of the cells under the control of HIV-1 LTR promoter.
After 48 h, dose-response curves were generated by measuring reporter gene expression in each well by using the Bright-Glo Luciferase Assay (Promega) through the GloMax Discovery reader (Promega). Relative luminescence units measured in each well were elaborated with the GraphPad Software v.6.0 to calculate IC50 values. All the viruses and cell lines were obtained through the NIH AIDS Reagent Program (www.aidsreagent.org).

Data set [2] in a line: Water solubility assay. Type of data set: physicochemical. The note with it: 27 °C, thermodynamic from solid, 1 mg in 1 mL water. The method, then: […] After 24 h of stirring at 27 °C, the mixture was filtered and the quantity of solubilized compound determined by LC-MS-MS. […] By contrast, esters 30 and 31 due to their lipophilicity have values outside the recommended range […].
The appropriate (1 mg) was added to 1 mL of water. The sample was shaken in a shaker bath at room temperature for 24–36 h. The suspensions were filtered through a 0.45 μm nylon filter (Acrodisc, Sigma Aldrich, Milan, Italy) and the solubilized compound determined by LC-MS-MS assay. The determination was performed in triplicate. For the quantification, an LC-MS system consisting of a Varian apparatus (Varian Inc., Palo Alto, CA, USA), including a vacuum solvent degassing unit, two pumps (212-LC), a Triple Quadrupole MSD (Mod. 320-LC) mass spectrometer with ES interface, and Varian MS Workstation System Control Vers. 6.9 software, was used. Chromatographic separation was obtained while using a 3 μm particle size Pursuit C18 column (50 × 2.0 mm) (Varian). Column was equilibrated in Buffer B (aqueous solution of 0.1% formic acid) and eluted with a linear increase from 0% to 70% gradient of Buffer A (ACN) for 10 min. and subsequent increase up to 98% for additional 5 min. The instrument operated in positive mode and the following parameters were used: injection volume 5 μL, flow rate 0.3 mL/min, detector 1850 V, drying gas pressure 25.0 psi, desolvation temperature 300.0 °C, nebulizing gas 45.0 psi, needle 5000 V, and shield 600 V. Nebulizer gas and drying gas was Nitrogen. Argon was the collision gas at a pressure of 1.8 mTorr in the collision cell. Single compound quantification was performed in comparison with standard calibration curves in methanol.

The target in data set [3] is T1, DDX3X ATPase (Homo sapiens, UniProt O00571).
T1 construct: Recombinant his-tagged human full length DDX3X was cloned into the E. coli expression vector pET-30a(+); His tag; made in house; host or cells: Shuffle T7 E. coli
The experiment in a line: DDX3X ATPase assay (ADP-Glo). Type of data set: biochemical. Particulars: recombinant human DDX3X, 50 μM ATP; mean ± SD of three experiments; read-out: DDX3X ATPase Ki (apparent dissociation constant for inhibitor binding). The procedure:
Recombinant his-tagged human full length DDX3X was cloned into the E. coli expression vector pET-30a(+). Shuffle T7 E. coli cells were transformed with the plasmid and grown at 37 °C up to OD600 = 0.7. DDX3X expression was induced with 0.5 mM IPTG at 15 °C O/N. The cells were harvested by centrifugation, lysed, and the crude extract centrifuged at 100.000xg for 60 min. at 4 °C in a Beckman centrifuge before being loaded onto a FPLC Ni-NTA column (GE Healthcare). Column was equilibrated in Buffer A (50 mM Tris-HCl pH 8.0, 250 mM NaCl, 25 mM Imidazole, and 20% glycerol). After extensive washing in Buffer A, the column was eluted with a linear gradient in Buffer A from 25 mM to 250 mM Imidazole. Proteins in the eluted fractions were visualized on SDS-PAGE and then tested for the presence of DDX3X by Western blot with anti-DDX3X A300-475A(BETHYL) at 1:2000 dilution in 5% milk. Fractions containing the purest DDX3X protein were pooled and stored at −80 °C.
The ATPase assay was carried out by using the commercial kit Promega (Milan, Italy), ADP-Glo^TM Kinase Assay. Reaction was performed in 30 mM TrisHCl pH 8, 9 mM MgCl2, 0.05 mg/mL BSA, 50 μM ATP, and 4 μM of recombinant DDX3X. Reaction was performed following the ADP-Glo^TM Kinase Assay Protocol and luminescence was measured with MicroBeta TriLux (Perkin Elmer, Milan, Italy).
In general terms: ADP-Glo turns the ADP formed in a reaction into a luminescent signal.

Data set [4] in a line: Parallel Artificial Membrane Permeability Assay (PAMPA). In kind it is in vitro ADME. Particulars: pH 7.4, 5 h. The method, then:
Finally, we evaluated passive membrane permeability (AppP) while using Parallel Artificial Membrane Permeability Assay (PAMPA). The quantity of compound able to diffuse through a semipermeable artificial membrane was calculated by LC-MS-MS.
Donor solution (0.5 mM) was prepared by diluting 1 mM dimethylsulfoxide (DMSO) compound stock solution while using phosphate buffer (pH 7.4, 0.025 M). Filters were coated with 5 μL of a 1% (w/v) dodecane solution of phosphatidylcholine for intestinal permeability. Donor solution (150 μL) was added to each well of the filter plate. To each well of the acceptor plate was added 300 μL of solution (50% DMSO in phosphate buffer). All of the compounds were tested in three different plates on different days. The sandwich was incubated for 5 h at room temperature under gentle shaking. After the incubation time, the plates were separated, and samples were taken from both receiver and donor sides and analyzed while using LC with UV detection at 280 nm. LC analysis was performed with a PerkinElmer (series 200) instrument that was equipped with an UV detector (PerkinElmer 785A, UV/vis Detector). Chromatographic separation was conducted using a Polaris C18 column (150–4.6 mm, 5 μm particle size) at a flow rate of 0.8 mL min^−1 with a mobile phase composed of 60% ACN/40% H2O-formic acid 0.1% for all compounds. Permeability (Papp) was calculated according to the following equation with some modification to obtain permeability values in cm/s, (1) Papp=VDVA/(VD+VA)At−ln(1−r) where VA is the volume in the acceptor well, VD is the volume in the donor well (cm^3), A is the “effective area” of the membrane (cm^2), t is the incubation time (s), and r the ratio between drug concentration in the acceptor and equilibrium concentration of the drug in the total volume(VD + VA).
Drug concentration is estimated by using the peak area integration. Membrane retentions (%) were calculated according to the following equation:(2) %MR=[r−(D+A)]100/Eq where r is the ratio between drug concentration in the acceptor and equilibrium concentration, D, A, and Eq represented drug concentration in the donor, acceptor, and equilibrium solution, respectively.

A short description of data set [5]: Cytotoxicity assay in H9 cells (CellTiter-Glo 2.0). Particulars: human; non-infected H9 cells, 72 h. Type of data set: cell-based, human. The method, then: (§1) Cytotoxicity in H9 cells was determined by using the CellTiter-Glo 2.0 assay (Promega). H9 cells were seeded at 40,000 cells/well in duplicate in the presence of serial two-fold dilutions of compounds (range 200–1.56 μM) and incubated for 72 h. Cell viability was calculated by measuring cellular ATP as a marker of metabolically active cells through a luciferase based chemical reaction and expressed as the concentration that reduce cell viability by 50%.
(ATP-based viability assays read luminescence as a measure of living cells.)

The test system of data set [6] is H9 cells. The experiment in a line: Cytotoxicity assay in H9 cells (CellTiter-Glo 2.0). In kind it is cell-based, human. Particulars: CC50 in H9 cells versus anti-HIV-1 IC50. The procedure: as §1
Data set [7] has as its system HIV-1. The arrangement: method as in PMID 18834110. The note with it: MT4 cells; read-out: EC50, inhibition of HIV-1 replication; cited from earlier work.
Data set [8] deals with DDX3X. Details: method as in PMID 21698775. The note with it: cited from earlier work.

Read-outs that look alike come from different tables or passages of the source.

T1 sequence (O00571 whole entry): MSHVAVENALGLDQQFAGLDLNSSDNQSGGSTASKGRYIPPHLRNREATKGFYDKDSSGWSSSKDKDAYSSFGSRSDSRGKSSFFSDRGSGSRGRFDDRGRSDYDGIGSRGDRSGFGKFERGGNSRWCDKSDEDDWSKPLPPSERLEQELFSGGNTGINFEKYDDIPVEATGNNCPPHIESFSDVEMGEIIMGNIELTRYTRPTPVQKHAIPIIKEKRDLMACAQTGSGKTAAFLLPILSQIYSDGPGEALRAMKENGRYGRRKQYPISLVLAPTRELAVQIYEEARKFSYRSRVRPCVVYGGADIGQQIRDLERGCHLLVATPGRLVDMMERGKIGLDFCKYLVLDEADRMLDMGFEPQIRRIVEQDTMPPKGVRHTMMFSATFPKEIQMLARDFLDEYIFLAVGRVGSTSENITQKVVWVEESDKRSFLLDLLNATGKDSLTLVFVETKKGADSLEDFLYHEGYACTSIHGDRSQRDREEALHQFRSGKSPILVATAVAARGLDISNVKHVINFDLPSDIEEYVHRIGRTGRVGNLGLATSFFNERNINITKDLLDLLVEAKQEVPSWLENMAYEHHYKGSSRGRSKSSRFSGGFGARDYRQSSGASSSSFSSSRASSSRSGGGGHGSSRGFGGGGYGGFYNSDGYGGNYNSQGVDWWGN

Turning to `O=C(O)c1ccccc1C(=O)Nc1nnc(-c2ccc(O)cc2)s1` [Compound 24, 2-((5-(4-Hydroxyphenyl)-1,3,4-thiadiazol-2-yl)carbamoyl)benzoic acid], the IC50 in data set [1] (H9 cells) was determined as 2.8 ± 1.5 µM; in data set [1] (Human immunodeficiency virus 1, NL43, H9 cells) it was 3.9 µM. For the same molecule, the results for the solubility at 24 h in data set [2] (read-out: AqS (aqueous solubility)) and in data set [2] (read-out: AqS as Log of molar concentration (LogS) (converted)) were 27.8 µg/mL and 83.2 µM, respectively. In addition, the Ki in data set [3] worked out at 1.9 ± 0.4 µM. Moreover, the “Percentage in parentheses beside AppP (membrane retention)” value in data set [4] is listed as 0%. Further, in data set [4] (room temperature, read-out: AppP (apparent permeability)), the Papp at 5 h, 0.5 mM is below 0.1 ×10⁻⁶ cm/s. Also, the half-maximal cytotoxic concentration (CC50) at 72 h in data set [5] stood at 125 µM. For the same molecule, in data set [6], the “SI (selectivity index)” value is 45.
Regarding `O=C(CN1C(=O)/C(=C/c2cccc(Br)c2)SC1=S)Nc1ccccc1O` [FE15], the EC50 in data set [7] is 86.7 µM.
`O=C1/C(=C/c2c(NCCCO)nc3ccccn3c2=O)SC(=S)N1CCc1ccccc1` [FE109]: the Ki in data set [8] was 0.2 µM.
